Among the data in PMC8571031, “Stimulation of Ca^2+‐ATPase Transport Activity by a Small‐Molecule Drug” (Chemmedchem, 2021) are EC50 values, retold here.

In general, EC50 refers to the concentration giving half of the maximal effect. A higher EC50 goes with weaker potency.

This assay concerns the target T1, sarco(endo)plasmic reticulum Ca2+-ATPase (SERCA1a isoform) (Oryctolagus cuniculus, UniProt P04191).
T1 construct: gene ATP2A1; purified SERCA1a from rabbit skeletal muscle SR in reconstituted proteoliposomes; native SR vesicles for the EC50
Nature of the assay: SSM electrical measurement of ATP-induced charge translocation (activation); EC50 on native SR vesicles, direct action confirmed with purified SERCA1a proteoliposomes. The assay is classed as biochemical.

T1 sequence (P04191 1-993): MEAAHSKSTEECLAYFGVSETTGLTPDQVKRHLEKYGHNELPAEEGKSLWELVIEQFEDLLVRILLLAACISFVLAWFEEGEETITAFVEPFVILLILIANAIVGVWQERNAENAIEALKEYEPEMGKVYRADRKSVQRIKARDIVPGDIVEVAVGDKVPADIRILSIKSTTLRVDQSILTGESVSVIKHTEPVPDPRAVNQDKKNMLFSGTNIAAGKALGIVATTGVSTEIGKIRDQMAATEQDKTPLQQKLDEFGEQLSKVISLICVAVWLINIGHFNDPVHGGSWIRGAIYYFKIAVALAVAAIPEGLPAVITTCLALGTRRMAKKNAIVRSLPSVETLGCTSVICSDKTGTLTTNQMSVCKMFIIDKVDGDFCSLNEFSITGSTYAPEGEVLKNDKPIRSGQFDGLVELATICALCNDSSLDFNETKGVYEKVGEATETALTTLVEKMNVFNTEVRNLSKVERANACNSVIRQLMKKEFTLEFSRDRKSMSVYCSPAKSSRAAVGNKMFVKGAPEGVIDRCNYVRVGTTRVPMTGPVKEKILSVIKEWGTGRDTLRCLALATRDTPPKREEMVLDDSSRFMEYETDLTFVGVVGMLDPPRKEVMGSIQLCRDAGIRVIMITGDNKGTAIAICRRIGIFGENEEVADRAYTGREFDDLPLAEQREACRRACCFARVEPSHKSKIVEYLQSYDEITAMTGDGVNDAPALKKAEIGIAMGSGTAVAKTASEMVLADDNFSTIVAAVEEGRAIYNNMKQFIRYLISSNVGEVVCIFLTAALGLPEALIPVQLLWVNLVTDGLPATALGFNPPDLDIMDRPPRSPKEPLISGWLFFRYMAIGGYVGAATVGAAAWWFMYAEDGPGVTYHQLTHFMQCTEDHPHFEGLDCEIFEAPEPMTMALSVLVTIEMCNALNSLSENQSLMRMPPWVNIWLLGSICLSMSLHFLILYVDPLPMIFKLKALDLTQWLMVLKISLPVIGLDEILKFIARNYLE

`Cc1ccc2cccc(NC(=O)c3ccc(OC(C)C)cc3)c2n1` [CDN1163] registered an EC50 of 6 ± 0.3 µM.
